Laboratory results taken from article PMC5049785, “Characterization of Novel Antimalarial Compound ACT-451840: Preclinical Assessment of Activity and Dose–Efficacy Modeling” (PLoS Medicine, 2016).
Like-named read-outs stand apart in the source and are kept apart here.

Key:
[1] = test system: P. falciparum stage V gametocytes / oocysts in Anopheles stephensi; assay: Standard membrane feeding assay, indirect mode; assay type: cell-based, Plasmodium falciparum; settings: 24 h pre-exposure of gametocytes
Method: ACT-451840 was tested in the standard membrane feeding assay at TropIQ (Nijmegen, The Netherlands) in two modes, as previously described. In the direct mode, the compound was directly added to a bloodmeal containing mature stage V gametocytes that was fed to Anopheles stephensi mosquitoes. […] Seven days after the bloodmeal, the number of oocysts in the midgut was determined by microscopy for both modes. […] Vehicle control (0.1% DMSO) and positive control (10 μM dihydroartemisinin) were included. Twenty mosquitoes were dissected per sample, and oocyst load was analyzed per mosquito.

[2] = Blood to plasma ratio with 14C-labeled compound; assay type: in vitro ADME; settings: human fresh whole-blood, 0.5 μg/mL, 60 minutes, 37 °C
Method: The blood to plasma ratio was determined using ^14C-labeled ACT-451840 at Actelion Pharmaceuticals Ltd. (Allschwil, Switzerland). For this, human fresh whole-blood was spiked with a mixture of non-labeled and ^14C-labeled ACT-451840 at a nominal concentration of 0.5 μg / mL and incubated for 60 minutes on a rotary mixer at 37 °C. Radioactivity was determined by liquid scintillation counting in whole blood and after preparation of plasma.

[3] = test system: P. falciparum NF54 strain; assay: [3H]-hypoxanthine incorporation assay, NF54; assay type: cell-based, Plasmodium falciparum; settings: mean ± SD
Method: In vitro time-, stage-, and concentration-dependent effects were assessed using pyrimethamine as a stage-specific and slow-acting control, as described elsewhere.

[4] = Safety pharmacology in rats; assay type: in vivo; settings: rats dosed up to 1,000 mg/kg
[5] = test system: P. falciparum clinical isolates (Papua, Indonesia); assay: Ex vivo drug susceptibility, P. falciparum clinical isolates; assay type: cell-based, Plasmodium falciparum; settings: P. falciparum clinical isolates, n = 27 (closed symbols); read-out: median IC50
Method: (§1) […]. Thick blood films made from each well were stained with 5% Giemsa solution for 30 min and examined microscopically. The number of schizonts per 200 asexual-stage parasites was determined for each drug concentration and normalized to the control well.

[6] = Chromosome aberration study in vitro
[7] = test system: P. vivax clinical isolates (Papua, Indonesia); assay: Ex vivo drug susceptibility, P. vivax clinical isolates; assay type: cell-based, Plasmodium vivax; settings: P. vivax clinical isolates, n = 34 (open symbols); read-out: median IC50
Method: as §1

[8] = General oral toxicity study up to 4 wk, dogs; assay type: in vivo
[9] = test system: Cam3.II^C580Y and Cam3.II^rev 0–3 h postinvasion rings; assay: Ring-stage survival assay (RSA0-3h); assay type: cell-based, P. falciparum; settings: 6-h pulse, 35–700 nM, survival assessed 66 h later
Method: Ring-stage survival assays (RSA0-3h) were carried out at Columbia University Medical Center (New York, United States) as previously described. Parasite cultures were synchronized using 5% sorbitol (Sigma-Aldrich), and schizonts were incubated in RPMI-1640 containing 15 units/ml sodium heparin for 15 min at 37°C to disrupt agglutinated erythrocytes. These schizonts were concentrated over a gradient of 75% Percoll (Sigma-Aldrich), washed once in RPMI-1640, and incubated for 3 h with fresh erythrocytes to allow time for merozoite invasion. Cultures were then subjected again to sorbitol treatment to eliminate remaining schizonts. The 0–3 h postinvasion rings were adjusted to 1% parasitemia and 2% hematocrit in 1 mL volumes (in 48-well plates) and exposed to a range of ACT-451840 drug concentration (700–35 nM) or 0.1% DMSO for 6 h. Duplicate wells were established for each parasite line ± drug concentration. One-mL cultures were then transferred to 15-mL conical tubes, centrifuged at 800xg for 5 min to pellet the cells, and the supernatants carefully removed. As a washing step to remove drug, 10 mL culture medium were added to each tube, and the cells were resuspended, centrifuged, and the medium was aspirated. […] Stained parasites were detected using a BD Accuri 6 Flow Cytometer and analyzed using FlowJo Software. IC50 values were determined by nonlinear regression using GraphPad Prism 6.0. […]

[10] = test system: P. falciparum TM90C2A (Thailand); assay: [3H]-hypoxanthine incorporation assay, TM90C2A; assay type: cell-based, Plasmodium falciparum; settings: read-out: 50% inhibitory concentration (IC50), resistance CQ, PYR, MFQ, CYC, mean ± SD
[11] = test system: P. falciparum W2 (Vietnam); assay: [3H]-hypoxanthine incorporation assay, W2; assay type: cell-based, Plasmodium falciparum; settings: read-out: 50% inhibitory concentration (IC50); W2, resistance CQ, SUL, PYR, CYC; mean ± SD

Which IC50 ([1]; oocysts counted 7 d after bloodmeal, read-out: IC50 oocyst development in the mosquito (oocyst intensity)) does the source give for `CC(=O)N1CCN(c2ccc(CN(C(=O)/C=C/c3ccc(C(C)(C)C)cc3)[C@@H](Cc3ccccc3)C(=O)N3CCN(Cc4ccc(C#N)cc4)CC3)cc2)CC1` [ACT-451840] here?
Its IC50 is 30 nM.

And the IC50 ([1]; read-out: IC50 prevalence of infection (number of infected mosquitoes))?
The IC50 was 104 nM.

And the “blood to plasma concentration ratio” value [2]?
The value was 0.6.

And the IC90 ([3]; NF54, n ≥ 3)?
Its IC90 is 0.6 nM.

What about the IC99 ([3]; NF54, n ≥ 3) of the same molecule?
Its IC99 is 1.2 ± 0.0 nM.

And the IC50 ([3]; read-out: 50% inhibitory concentration (IC50), NF54, no resistance, n = 3)?
The IC50 was 0.4 nM.

What about the “effects on central nervous and respiratory parameters” value [4] of the same molecule?
Its value is “no effects”.

And the IC50 [5]?
Its IC50 is 2.5 nM.

What about the “genotoxicity, chromosome aberration study” value [6] of the same molecule?
Its value is “not genotoxic”.

What about the IC50 [7] of the same molecule?
The IC50 was 3 nM.

What about the no-observed-adverse-effect level ([8]; oral) of the same molecule?
Its no-observed-adverse-effect level is 100 mg/kg/day.

And the local gastrointestinal toxicity ([8]; oral up to 1,000 mg/kg/day)?
Its local gastrointestinal toxicity is “no evidence of local gastrointestinal toxicity”.

And the “ring-stage survival rates, wild-type K13 allele versus C580Y mutation” value [9]?
Its value is “No difference in survival rates”.

And the IC50 [10]?
The IC50 was 1 ± 0.3 nM.

And the IC50 [11]?
Its IC50 is 0.2 ± 0.1 nM.
